The record followed here is US20240132519A1, “NRF2-ACTIVATING COMPOUND” (SENJU PHARMACEUTICAL CO., LTD., priority 2020, published 2024).

The target of data set [1] is binding between NRF2 and KEAP1 (Homo sapiens (Human), UniProt Q14145). Description: Binding assay: inhibition of binding between NRF2 and KEAP1 by BRET (NanoLuc-NRF2 and KEAP1-HaloTag cell lysates). The settings on record: N=2. The protocol:
The inhibitory activity of each compound on the binding between NRF2 and KEAP1 was measured by bioluminescence resonance energy transfer (BRET) assay. A plasmid having human NRF2 (Original Clone ID: ha01449s1) sequence fused with NanoLuc (19 kDa, Promega) at the N-terminal was transduced into HCE-T cells (immortalized human corneal epithelial cells) using FuGENE HD (Promega). 48 hours after transduction, the cell lysate was collected and used as an NRF2-expressing cell lysate. A plasmid having human KEAP1 (Original Clone ID: cs00328) sequence fused with HaloTag (33 kDa, Promega) at the C-terminal was transduced into HCE-T cells using FuGENE HD (Promega). After 24 hours, HaloTag Nano BRET 618 Ligand (Promega) was added to the medium. The cell lysate cultured for 24 hours after the addition was used as a KEAP1-expressing cell lysate.
The NRF2-expressing cell lysate and the KEAP1-expressing cell lysate were adjusted so that the luminescence and fluorescence intensities per well were constant. Tables 1 and 2 show the formulation of each reaction solution.
Each test substance at a concentration 100 times higher than the test concentration was dissolved in dimethylsulfoxide for adjustment. 49 μL of KEAP1 solution was added to a 96-well polystyrene microplate (FALCON) to which 1 μL of each test substance solution was added, followed by incubation for 15 minutes. Then, 50 μL of NRF2 solution was added to the above solution, followed by incubation for 1 hour. To measure the binding between NRF2 and KEAP1, NanoBRET Nano-Glo Substrate (Promega) diluted with Opti-Mem (Thermo Fisher Scientific) was added, followed by shaking for 30 seconds. Then, luminescence and fluorescence were measured using the GloMax Discover System (Promega). A 495-nm short pass filter and a 600-nm long pass filter were respectively used to measure donor and acceptor emission values. A value obtained by dividing the acceptor emission value by the donor emission value was regarded as BRET value. A BRET value when the compound was not added, and a BRET value when the KEAP1 solution was not added were respectively used as binding rates of 100% and 0%, and the binding rate when the compound was added was calculated. Further, using this binding rate, the 50% binding inhibitory activity concentration (IC50) was calculated from the following formula. The test was performed at N=2.
IC50(M)=10^(LOG(A/B)×(50−C)/(D−C)+LOG(B)) • A: higher concentration out of 2 close concentrations across the inhibition rate of 50% • B: lower concentration out of 2 close concentrations across the inhibition rate of 50% • C: inhibition rate at B • D: inhibition rate at A
(§1) Compounds A1/A2, compounds B1/B2, compounds C1/C2, and compounds D1/D2 were used as test substances. Binding assay and reporter assay were performed as in Test Example 1-1 and Test Example 1-2.

Data set [2] deals with NRF2. Description: Reporter assay: NRF2 activating action in HCE-T/ARE-Luc cells (ARE luciferase reporter gene assay). In kind it is cell-based, human. The settings on record: N=3. As for the experimental part: The NRF2 activating action of the compounds on cells was measured by a reporter gene assay. pGL4.37[luc2P/ARE/Hygro] (Promega) was introduced into HCE-T cells using FuGENE HD. Cells that acquired drug resistance as a result of transduction were screened by culture in the presence of 50 μg/mL hygromycin, and a clone strain, HCE-T/ARE-Luc cells, was established.
HCE-T/ARE-Luc cells were cultured using DMEM/F12 medium containing 10 ng/mL hEGF, 5 μg/mL insulin, 5% FBS, and 40 μg/mL gentamicin. As the assay medium, a medium with the same composition as that for the culture was prepared using phenol red-free DMEM/F12 medium.
HCE-T/ARE-Luc cells were seeded in a 96-well polystyrene microplate (FALCON) with 10000 cells per well. The cells were incubated in a CO2 incubator at 37° C. for 16 hours to allow for cell adhesion. The test substance was dissolved in dimethylsulfoxide to prepare a solution at a concentration 1000 times higher than the test concentration. The cells were treated with the test substance diluted 1000-fold with the assay medium and cultured for 24 hours. When measuring the activity of the reporter, the medium containing the test substance was removed, and then a new medium and a substrate of ONE-GloEX Luciferase Assay System (Promega) were added. The plate was shaken for 1 minute and then allowed to stand at ordinary temperature for 10 minutes, and luminescence was detected using the GloMax Discover System (Promega).
The test was performed at N=3, and the 50% activation concentration of each test substance was calculated by creating a calibration curve between two concentrations across the luminescence incensity of 50%.
as §1

Data set [3] has as its system HCE-T cells. Description: Cell viability test in HCE-T cells (Cell Counting Kit-8, 24 hours). The settings on record: mean, N=3. The data set is classed as cell-based, human. The protocol: To confirm cell viability, HCE-T cells were seeded at 10000 cells per well in a 96-well polystyrene microplate (IWAKI). The cells were cultured in a CO2 incubator at 37° C. for 16 hours to allow the cells to adhere. The culture of the HCE-T cells was performed using DMEM/F12 medium containing 10 ng/mL hEGF, 5 μg/mL insulin, 5% FBS, and 40 μg/mL gentamicin.
Each test substance was dissolved in dimethyl sulfoxide to prepare a stock solution with a concentration that is 1000 times the test concentration. DMEM/F12 medium containing 40 μg/mL gentamicin was used as assay medium. The medium containing serum and growth factors was removed and replaced with assay medium in which each test substance was appropriately serially diluted, and the cell viability was measured after 24 hours. Cell Counting Kit-8 (Dojindo Laboratories) was added to each well in an amount that is 1/10 the amount of the medium. Color reaction was performed for 1 hour in a CO2 incubator, and absorbance at 450 nm was measured with a microplate reader (Corona Electric Co., Ltd.). […] The test was performed at N=3.
Background: Tetrazolium assays rely on reduction of a dye to a coloured formazan, in cell work by metabolically active cells.

Where [4] appears, read: Test Example 3, separated diastereomers, mean.
[5] abbreviates: Test Example 1-1, NRF2-KEAP1 BRET.

The term IC50 denotes the concentration that inhibits the measured activity by half. Usually EC50 stands for the concentration giving half of the maximal effect. A low value points to a more potent agent.

Each structure is given as a SMILES string. Marks after values point to notes of the source that are not given here.

Chain of binding between NRF2 and KEAP1 (Q14145 whole entry, the tested form may be a part): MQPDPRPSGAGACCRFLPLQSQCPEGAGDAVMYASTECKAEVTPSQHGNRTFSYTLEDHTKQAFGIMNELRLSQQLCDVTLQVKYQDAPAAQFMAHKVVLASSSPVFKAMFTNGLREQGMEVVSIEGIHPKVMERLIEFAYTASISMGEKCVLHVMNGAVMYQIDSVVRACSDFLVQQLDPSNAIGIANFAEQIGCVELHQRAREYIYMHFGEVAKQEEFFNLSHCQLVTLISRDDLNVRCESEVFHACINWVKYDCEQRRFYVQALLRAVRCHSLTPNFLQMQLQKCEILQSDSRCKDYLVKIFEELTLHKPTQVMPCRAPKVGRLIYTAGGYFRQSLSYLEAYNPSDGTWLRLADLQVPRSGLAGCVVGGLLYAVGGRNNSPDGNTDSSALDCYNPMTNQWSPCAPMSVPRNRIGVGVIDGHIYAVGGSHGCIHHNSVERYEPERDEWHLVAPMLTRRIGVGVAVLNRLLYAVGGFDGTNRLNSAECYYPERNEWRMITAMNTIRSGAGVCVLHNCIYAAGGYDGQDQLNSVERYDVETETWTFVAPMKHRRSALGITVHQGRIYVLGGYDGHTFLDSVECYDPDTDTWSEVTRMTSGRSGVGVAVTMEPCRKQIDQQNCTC

Compound `CC[C@@H]1CN(Cc2cc(C(c3ccc(C(C)=O)s3)C(C)(C)C(=O)O)ccc2C)S(=O)(=O)c2cnccc2O1` (single isomer, unassigned) [Compound D1] registered an IC50 in data set [1] (setting [4]) of 0.17 nM. Further, in data set [2] (setting [4]), it took 0.67 nM to reach a half-maximal effect (EC50). For the same compound, in data set [3], the “Cytotoxic concentration (concentration that does not affect cell viability)” value was determined as 34.1 µM.

`CC[C@@H]1CN(Cc2cc(C(c3ccc(C(C)=O)s3)C(C)(C)C(=O)O)ccc2C)S(=O)(=O)c2cnccc2O1` (single isomer, unassigned) [Compound D2] had a half-maximal inhibitory concentration (IC50) in data set [1] (setting [4]) of 5.17 nM. Moreover, a half-maximal response in data set [2] (setting [4]) (EC50) required 513 nM. The “Cytotoxic concentration (concentration that does not affect cell viability)” value in data set [3] was 14.7* uM.

The compound `CC[C@@H]1CN(Cc2cc(C(c3cc(C)c(C(C)=O)s3)C(C)C(=O)O)ccc2C)S(=O)(=O)c2ccccc2O1` (stereo partly drawn) [Compound 2, 3-(5-acetyl-4-methylthiophen-2-yl)-3-(3-{[(R)-4-ethyl-1,1-dioxide-3,4-dihydro-2H-benzo[b][1,4,5]oxathiazepin-2-yl]methyl}-4-methylphenyl)-2-methylpropanoic acid] displayed an IC50 in data set [1] (setting [5]) of 0.25 nM. The concentration giving a half-maximal response (EC50) in data set [2] (Homo sapiens, Test Example 1-2, HCE-T/ARE-Luc cells, 24 hours) came to 9 nM.

`CC[C@@H]1CN(Cc2cc(C(CC(=O)O)c3ccc(C(=O)NC)s3)ccc2C)S(=O)(=O)c2ccccc2O1` (stereo partly drawn) [Compound 21, 3-(3-{[(R)-4-ethyl-1,1-dioxide-3,4-dihydro-2H-benzo[b][1,4,5]oxathiazepin-2-yl]methyl}-4-methylphenyl)-3-[5-(methylcarbamoyl)thiophen-2-yl]propanoic acid] yielded an IC50 in data set [1] (setting [5]) of 4.6 nM.

For `CC[C@@H]1CN(Cc2cc(C(CC(=O)O)c3csc(C(=O)NC)c3)ccc2C)S(=O)(=O)c2ccccc2O1` (stereo partly drawn) [Compound 22, 3-(3-{[(R)-4-ethyl-1,1-dioxide-3,4-dihydro-2H-benzo[b][1,4,5]oxathiazepin-2-yl]methyl}-4-methylphenyl)-3-[5-(methylcarbamoyl)thiophen-3-yl]propanoic acid], the IC50 in data set [1] (setting [5]) is 6.1 nM.

`CC[C@@H]1CN(Cc2cc(C(CC(=O)O)c3ccc(C(N)=O)s3)ccc2C)S(=O)(=O)c2ccccc2O1` (stereo partly drawn) [Compound 23, 3-(5-carbamoylthiophen-2-yl)-3-(3-{[(R)-4-ethyl-1,1-dioxide-3,4-dihydro-2H-benzo[b][1,4,5]oxathiazepin-2-yl]methyl}-4-methylphenyl)propanoic acid]: the IC50 in data set [1] (setting [5]) was found to be 0.39 nM.

For `CC[C@@H]1CN(Cc2cc(C(c3ccc(C(C)=O)s3)C(C)(C)C(=O)O)ccc2C)S(=O)(=O)c2cnccc2O1` (stereo partly drawn) [Compound 48, 3-(5-acetylthiophen-2-yl)-3-(3-{[(R)-4-ethyl-1,1-dioxide-3,4-dihydro-2H-pyrido[4,3-b][1,4,5]oxathiazepin-2-yl]methyl}-4-methylphenyl)-2,2-dimethylpropanoic acid], in data set [1] (setting [5]), the IC50 is 0.39 nM.

`CC[C@@H]1CN(Cc2cc(C(c3cc(F)c(C(C)=O)s3)C(C)(C)C(=O)O)ccc2C)S(=O)(=O)c2cnccc2O1` (stereo partly drawn) [Compound 49, 3-(5-acetyl-4-fluorothiophen-2-yl)-3-(3-{[(R)-4-ethyl-1,1-dioxide-3,4-dihydro-2H-pyrido[4,3-b][1,4,5]oxathiazepin-2-yl]methyl}-4-methylphenyl)-2,2-dimethylpropanoic acid] showed an IC50 in data set [1] (setting [5]) of 0.31 nM.

`CC[C@@H]1CN(Cc2cc(C(c3cc(OC)c(C(C)=O)s3)C(C)(C)C(=O)O)ccc2C)S(=O)(=O)c2cnccc2O1` (stereo partly drawn) [Compound 50, 3-(5-acetyl-4-methoxythiophen-2-yl)-3-(3-{[(R)-4-ethyl-1,1-dioxide-3,4-dihydro-2H-pyrido[4,3-b][1,4,5]oxathiazepin-2-yl]methyl}-4-methylphenyl)-2,2-dimethylpropanoic acid] gave an IC50 in data set [1] (setting [5]) of 0.19 nM.

`CC[C@@H]1CN(Cc2cc(C(c3cc(OC)c(C(C)=O)s3)C(C)C(=O)O)ccc2C)S(=O)(=O)c2cnccc2O1` (stereo partly drawn) [Compound 51, 3-(5-acetyl-4-methoxythiophen-2-yl)-3-(3-{[(R)-4-ethyl-1,1-dioxide-3,4-dihydro-2H-pyrido[4,3-b][1,4,5]oxathiazepin-2-yl]methyl}-4-methylphenyl)-2-methylpropanoic acid] displayed an IC50 in data set [1] (setting [5]) of 0.41 nM.

Regarding `CC[C@@H]1CN(Cc2cc(C(c3cc(F)c(C(C)=O)s3)C(C)C(=O)O)ccc2C)S(=O)(=O)c2cnccc2O1` (stereo partly drawn) [Compound 52, 3-(5-acetyl-4-fluorothiophen-2-yl)-3-(3-{[(R)-4-ethyl-1,1-dioxide-3,4-dihydro-2H-pyrido[4,3-b][1,4,5]oxathiazepin-2-yl]methyl}-4-methylphenyl)-2-methylpropanoic acid], in data set [1] (setting [5]), the IC50 worked out at 0.27 nM.

Take `CC[C@@H]1CN(Cc2cc(C(CC(=O)O)c3ccc(C(C)=O)s3)ccc2C)S(=O)(=O)c2cnccc2O1` (stereo partly drawn) [Compound 53, 3-(5-acetylthiophen-2-yl)-3-(3-{[(R)-4-ethyl-1,1-dioxide-3,4-dihydro-2H-pyrido[4,3-b][1,4,5]oxathiazepin-2-yl]methyl}-4-methylphenyl)propanoic acid]: in data set [1] (setting [5]), the IC50 is 2.3 nM.

Turning to `CC[C@@H]1CN(Cc2cc([C@@H](c3ccc(C(C)=O)s3)[C@@H](C)C(=O)O)ccc2C)S(=O)(=O)c2ccccc2O1` [Compound A1, (2R,3S)-3-(5-acetylthiophen-2-yl)-3-(3-{[(R)-4-ethyl-1,1-dioxide-3,4-dihydro-2H-benzo[b][1,4,5]oxathiazepin-2-yl]methyl}-4-methylphenyl)-2-methylpropanoic acid], the concentration for half-maximal inhibition (IC50) in data set [1] (setting [4]) is 0.14 nM. Besides, the EC50 in data set [2] (setting [4]) was found to be 5.82 nM. Besides, the “Cytotoxic concentration (concentration that does not affect cell viability)” value in data set [3] stood at 111.4 µM.

In the case of `CC[C@@H]1CN(Cc2cc(C(c3ccc(C(C)=O)s3)[C@H](C)C(=O)O)ccc2C)S(=O)(=O)c2ccccc2O1` (some centres unmarked) [Compound A2], in data set [1] (setting [4]), the IC50 came to 0.71 nM. The compound further displayed an EC50 in data set [2] (setting [4]) of 317 nM. Also, the “Cytotoxic concentration (concentration that does not affect cell viability)” value in data set [3] is given as 65.3** uM.

Consider `CC[C@@H]1CN(Cc2cc([C@@H](c3ccc(C(C)=O)s3)[C@@H](C)C(=O)O)ccc2C)S(=O)(=O)c2cnccc2O1` [Compound B1, (2R,3S)-3-(5-acetylthiophen-2-yl)-3-(3-{[(R)-4-ethyl-1,1-dioxide-3,4-dihydro-2H-pyrido[4,3-b][1,4,5]oxathiazepin-2-yl]methyl}-4-methylphenyl)-2-methylpropanoic acid], for which the half-inhibitory concentration (IC50) in data set [1] (setting [4]) came to 0.17 nM. The compound also came in with an EC50 in data set [2] (setting [4]) of 0.98 nM. For the same compound, the “Cytotoxic concentration (concentration that does not affect cell viability)” value in data set [3] was found to be 345.4 µM.
